Measurements: ChEMBL document CHEMBL1127581, “Evolution of a novel series of [(N,N-dimethylamino)propyl]- and piperazinylbenzanilides as the first selective 5-HT1D antagonists” (J Med Chem, 1994)

Experiments:
[1] = target: 5-hydroxytryptamine receptor 1D (Cavia porcellus) (UniProt Q60484); test: Compound at 45 mg/kg was tested for the inhibition of hypothermia in the guinea pig caused by stimulation of central 5-hydroxytryptamine 1D receptors by the agonist GR-46611; type: functional, organism-based; parameters: dose 45 mg/kg
[2] = target: 5-hydroxytryptamine receptor 1D (Cavia porcellus) (UniProt Q60484); test: Oral effective dose against hypothermia in the guinea pig caused by stimulation of central 5-hydroxytryptamine 1D receptors by the agonist GR-46611; type: functional
[3] = species on record: Canis familiaris; test: Tested in vitro for its ability to block 5-HT induced contractile responses in dog isolated saphenous vein; type: functional, Canis lupus familiaris
[4] = species on record: Oryctolagus cuniculus; test: Tested for its ability to block 5-HT2A induced contractile responses in rabbit isolated aorta; type: functional
[5] = target: T1, 5-hydroxytryptamine receptor 1A (Rattus norvegicus, UniProt P19327); test: Binding affinity towards 5-hydroxytryptamine 1A receptor in rat hippocampus using [3H]8-OH-DPAT; type: tissue-based
T1 sequence (P19327 whole entry): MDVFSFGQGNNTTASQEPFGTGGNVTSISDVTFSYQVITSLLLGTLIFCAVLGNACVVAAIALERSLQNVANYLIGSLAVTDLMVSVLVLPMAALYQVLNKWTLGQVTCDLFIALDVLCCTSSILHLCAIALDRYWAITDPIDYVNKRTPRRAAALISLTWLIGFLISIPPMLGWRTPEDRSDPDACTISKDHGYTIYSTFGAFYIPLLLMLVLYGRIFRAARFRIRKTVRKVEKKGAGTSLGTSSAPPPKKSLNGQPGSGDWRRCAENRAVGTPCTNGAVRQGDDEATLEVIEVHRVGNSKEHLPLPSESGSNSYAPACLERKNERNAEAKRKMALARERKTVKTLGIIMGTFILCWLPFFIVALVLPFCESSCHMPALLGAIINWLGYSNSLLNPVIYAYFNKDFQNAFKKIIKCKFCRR

[6] = target: 5-hydroxytryptamine receptor 1D (Cavia porcellus) (UniProt Q60484); test: Compound at oral dose of 45 mg/kg was tested for percent inhibition against 5-hydroxytryptamine 1D receptor causes hypothermia in guinea pig; type: functional, organism-based; parameters: dose 45 mg/kg
[7] = target: 5-hydroxytryptamine receptor 1D (Cavia porcellus, UniProt Q60484); test: In vitro binding affinity towards 5-hydroxytryptamine 1D receptor in guinea-pig striatum in presence of BMY-7378 and mesulergine; type: tissue-based
[8] = species on record: Oryctolagus cuniculus; test: Tested in vitro for its ability to block 5-HT2A induced contraction of rabbit isolated aorta; type: functional
[9] = target: 5-hydroxytryptamine receptor 1D (Cavia porcellus) (UniProt Q60484); test: Compound at 3 mg/kg was tested for the inhibition of hypothermia in the guinea pig caused by stimulation of central 5-hydroxytryptamine 1D receptors by the agonist GR-46611; type: functional, organism-based; parameters: dose 3 mg/kg
[10] = target: 5-hydroxytryptamine receptor 1D (Cavia porcellus) (UniProt Q60484); test: Compound at 50 mg/kg was tested for the inhibition of hypothermia in the guinea pig caused by stimulation of central 5-hydroxytryptamine 1D receptors by the agonist GR-46611; type: functional, organism-based; parameters: dose 50 mg/kg
[11] = target: 5-hydroxytryptamine receptor 1D (Cavia porcellus) (UniProt Q60484); test: Oral effective dose against hypothermia in the guinea pig caused by stimulation of central 5-hydroxytryptamine 1D receptors by the agonist GR-46611;range is 0.2-1.2; type: functional
[12] = target: 5-hydroxytryptamine receptor 1B (Rattus norvegicus, UniProt P28564); test: In vitro binding affinity towards 5-hydroxytryptamine 1B receptor in rat striatal membrane with [125I]- iodocyanopindolol; type: cell membranes, Striatum
[13] = target: 5-hydroxytryptamine receptor 1D (Cavia porcellus) (UniProt Q60484); test: Oral effective dose against hypothermia in the guinea pig caused by stimulation of central 5-hydroxytryptamine 1D receptor by the agonist GR-46611; type: functional
[14] = target: T1, 5-hydroxytryptamine receptor 1A; test: Binding affinity towards 5-hydroxytryptamine 1A receptor in rat hippocampus with [3H]8-OH-DPAT; type: tissue-based
[15] = target: 5-hydroxytryptamine receptor 1D (Cavia porcellus) (UniProt Q60484); test: Oral effective dose against hypothermia in the guinea pig caused by stimulation of central 5-hydroxytryptamine 1D receptors by the agonist GR-46611; range is 2-9; type: functional

Sequence of 5-hydroxytryptamine receptor 1D (Q60484 whole entry): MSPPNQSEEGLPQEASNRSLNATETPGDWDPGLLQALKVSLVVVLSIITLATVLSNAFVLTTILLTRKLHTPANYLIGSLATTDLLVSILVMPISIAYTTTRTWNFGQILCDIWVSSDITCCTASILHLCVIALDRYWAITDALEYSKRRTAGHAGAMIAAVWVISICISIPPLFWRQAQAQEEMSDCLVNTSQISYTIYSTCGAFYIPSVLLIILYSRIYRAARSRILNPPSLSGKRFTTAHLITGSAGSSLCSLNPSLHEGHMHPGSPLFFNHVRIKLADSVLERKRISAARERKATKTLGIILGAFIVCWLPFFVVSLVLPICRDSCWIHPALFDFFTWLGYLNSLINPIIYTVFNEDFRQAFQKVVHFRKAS
Sequence of 5-hydroxytryptamine receptor 1D (Cavia porcellus) (Q60484 whole entry): as above
Sequence of 5-hydroxytryptamine receptor 1B (P28564 whole entry): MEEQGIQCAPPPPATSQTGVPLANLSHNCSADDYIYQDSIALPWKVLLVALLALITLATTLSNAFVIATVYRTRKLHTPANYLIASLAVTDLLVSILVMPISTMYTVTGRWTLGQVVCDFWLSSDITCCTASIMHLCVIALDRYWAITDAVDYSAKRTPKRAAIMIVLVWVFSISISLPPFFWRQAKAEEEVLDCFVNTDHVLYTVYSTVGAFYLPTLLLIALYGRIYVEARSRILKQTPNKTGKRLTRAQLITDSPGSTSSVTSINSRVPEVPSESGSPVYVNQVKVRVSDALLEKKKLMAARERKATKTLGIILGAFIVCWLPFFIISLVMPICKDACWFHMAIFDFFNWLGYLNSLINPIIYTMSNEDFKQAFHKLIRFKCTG

| SMILES | ED50 [2] [mg/kg] | pKB [3] | pKB [4] | Ki [5] [nM] | Ki [7] [nM] | pKB [8] | other results |
| --- | --- | --- | --- | --- | --- | --- | --- |
| COc1ccc(C(=O)Nc2ccc(-c3ccc(CO)cc3C)cc2)cc1CCCN(C)C | 45 | 8.5 | 5.9 | – | – | – | inhibition [1]: 52% |
| COc1ccc(C(=O)Nc2ccc(-c3ccc(C=O)cc3C)cc2)cc1CCCN(C)C | 45 | 8.4 | 6.3 | 5010 | 6.31 | – | inhibition [6]: < 30% |
| COc1ccc(C(=O)Nc2ccc(-c3ccncc3)cc2)cc1N1CCN(C)CC1 | > 45 | 7.9 | – | – | 3.16 | 6.5 | – |
| COCCOC(=O)c1ccc(-c2ccc(NC(=O)c3ccc(OC)c(CCCN(C)C)c3)cc2)c(C)c1 | 45 | 8.4 | 6.2 | – | 3.16 | – | inhibition [9]: 66%; inhibition [1]: 55% |
| COc1ccc(C(=O)Nc2ccc(-c3ccncc3)cc2)cc1CCCN(C)C | – | 7.8 | 6.3 | 20000 | 10 | – | inhibition [10]: < 30% |
| COc1ccc(C(=O)Nc2ccc(-c3ccc(-c4noc(C)n4)cc3C)cc2)cc1N1CCN(C)CC1 | – | 8.2 | – | 1260 | 6.31 | 7.8 | ED50 [11]: 0.5 mg/kg; Ki [12]: 6.31 nM |
| COc1ccc(NC(=O)c2ccc(-c3ccc(C(=O)N(C)C)cc3C)cc2)cc1N1CCN(C)CC1 | – | 9.2 | – | 251 | 5.01 | 4.9 | ED50 [13]: 0.67 mg/kg; Ki [12]: 6.31 nM |
| COc1ccc(C(=O)Nc2ccc(-c3ccc(C(=O)O)cc3C)cc2)cc1CCCN(C)C | – | 8.7 | 5.7 | > 10000 | 31.6 | – | – |
| COc1ccc(NC(=O)c2ccc(-c3ccncc3)cc2)cc1N1CCN(C)CC1 | – | 8 | – | – | 5.01 | 6.5 | Ki [14]: 1260 nM; ED50 [15]: 5 mg/kg |
| CCOc1ccc(NC(=O)c2ccc(OC)c(CCCN(C)C)c2)cc1 | – | 6.9 | 6.2 | – | – | – | – |
